The record followed here is ChEMBL document CHEMBL1135067, “Synthesis and antithrombotic activity of carbolinecarboxyl RGD sequence” (2002).

Assay type in all cases: functional
Assay [1] is filed under the species Oryctolagus cuniculus. In words: Tested in vitro for maximal rate of platelet aggregation induced by adenosine diphosphate (10 e5 mol/L) at a dose of 10 e6 mol/L in rabbit blood.
The species named for assay [2] is Oryctolagus cuniculus. In words: Tested in vitro for the maximal rate of platelet aggregation induced by platelet activating factor (10 e-7 mol/L) at a dose of 10 e7 mol/L in rabbit blood.
For assay [3], the species on record is Oryctolagus cuniculus. In words: Tested in vitro for maximal rate of platelet aggregation induced by adenosine diphosphate (10 e5 mol/L) at a dose of 10 e7 mol/L in rabbit blood.
Assay [4] relates to Rattus norvegicus. In words: Tested for the effect on the dry thrombus weight at a dose of 5 umol/kg in male wistar anesthetized rat.
The test system of a further assay is SACC-LM. In words: Tested for the effect of compound on the adhesion of high pulmonary metastatic SACC cell line SACC-LM and platelets at 5 mg/mL.
Assay [5] concerns Rattus norvegicus. In words: Tested for the effect on the wet thrombus weight at a dose of 5 umol/kg in male wistar anesthetized rat.
The species entered for assay [6] is Oryctolagus cuniculus. The assay is described as follows: Tested in vitro for the maximal rate of platelet aggregation induced by platelet activating factor (10 e-7 mol/L) at a dose of 10 e6 mol/L in rabbit blood.
The species named for assay [7] is Oryctolagus cuniculus. The assay is described as follows: Tested in vitro for the maximal rate of platelet aggregation induced by platelet activating factor (10 e-7 mol/L) at a dose of 10 e5 mol/L in rabbit blood.
Assay [8] is filed under the species Oryctolagus cuniculus. In words: Tested in vitro for maximal rate of platelet aggregation induced by adenosine diphosphate (10 e5 mol/L) at a dose of 10 e5 mol/L in rabbit blood.
In assay [9] the test system is Rattus norvegicus. In words: Tested for the effect on the wet thrombus weight at a dose of 5 uM/kg in male wistar anesthetized rat.
Assay [10] relates to Rattus norvegicus. The assay is described as follows: Tested for the effect on the dry thrombus weight at a dose of 5 uM/kg in male wistar anesthetized rat.

Where a SMILES comes first, the peptide text is derived from it. [ ]: non-standard residue; d: D form. Tpi = O=C(O)[C@@H]1Cc2c([nH]c3ccccc23)CN1

As to `CC(C)[C@H](NC(=O)[C@H](CC(=O)O)NC(=O)CNC(=O)[C@H](CCCN=C(N)N)NC(=O)[C@@H]1Cc2c([nH]c3ccccc23)CN1)C(=O)O` (H-[Tpi]RGDV-OH), the Am in the assay filed under Oryctolagus cuniculus [1] was 26.01%; in the assay filed under Oryctolagus cuniculus [2], 54.1%; in the assay listed under Oryctolagus cuniculus [3], 50.2%; in the assay filed under Oryctolagus cuniculus [6], 35.05%; in the assay listed under Oryctolagus cuniculus [7], 24.11%; in the assay listed under Oryctolagus cuniculus [8], 10.75%. The Thrombus weight was determined as 4.87 mg in the assay on Rattus norvegicus [4] and 29.49 mg in the assay on Rattus norvegicus [5]. Besides, the Activity in the assay on SACC-LM came to 30.2%.
Regarding `N=C(N)NCCC[C@H](NC(=O)[C@@H]1Cc2c([nH]c3ccccc23)CN1)C(=O)NCC(=O)N[C@@H](CC(=O)O)C(=O)N[C@@H](Cc1ccccc1)C(=O)O` (H-[Tpi]RGDF-OH), the Am turned out to be 21.05% in the assay listed under Oryctolagus cuniculus [1]; 36.05% in the assay filed under Oryctolagus cuniculus [2]; 36.05% in the assay filed under Oryctolagus cuniculus [3]; 25.54% in the assay listed under Oryctolagus cuniculus [6]; 20.05% in the assay listed under Oryctolagus cuniculus [7]; 9.01% in the assay filed under Oryctolagus cuniculus [8]. Moreover, the Thrombus weight is reported as 22.3 mg in the assay on Rattus norvegicus [9] and 2.76 mg in the assay with Rattus norvegicus [4]. This compound also returned an Activity with SACC-LM of 28.1%.
With `O=C(O)[C@@H]1Cc2c([nH]c3ccccc23)CN1` [CYCLOMETHYLTRYPTOPHAN], the Am is listed as 45.16% in the assay listed under Oryctolagus cuniculus [1]; 55.15% in the assay filed under Oryctolagus cuniculus [2]; 53.66% in the assay filed under Oryctolagus cuniculus [3]; 50.18% in the assay listed under Oryctolagus cuniculus [6]; 35.66% in the assay listed under Oryctolagus cuniculus [7]; 24.6% in the assay listed under Oryctolagus cuniculus [8]. The Thrombus weight was 7.17 mg with Rattus norvegicus [10] and 42.99 mg in the assay on Rattus norvegicus [5]. Besides, in the assay with SACC-LM, the Activity was 45.6%.
Turning to `N=C(N)NCCC[C@H](N)C(=O)NCC(=O)N[C@@H](CC(=O)O)C(=O)NC(CO)C(=O)O` (single isomer, unassigned), the Am in the assay filed under Oryctolagus cuniculus [1] amounted to 40.54%; in the assay listed under Oryctolagus cuniculus [2], 57.2%; in the assay listed under Oryctolagus cuniculus [3], 52.85%; in the assay filed under Oryctolagus cuniculus [6], 36.15%; in the assay listed under Oryctolagus cuniculus [7] it was 21.16%; in the assay listed under Oryctolagus cuniculus [8], 14.22%. Besides, the Thrombus weight in the assay with Rattus norvegicus [4] is listed as 7.68 mg; with Rattus norvegicus [5], 43.61 mg. In addition, the Activity in the assay on SACC-LM is 35.8%.
Take `N=C(N)NCCC[C@H](NC(=O)[C@@H]1Cc2c([nH]c3ccccc23)CN1)C(=O)NCC(=O)N[C@@H](CC(=O)O)C(=O)N[C@@H](CO)C(=O)O` (H-[Tpi]RGDS-OH): the Am was 43.05% in the assay filed under Oryctolagus cuniculus [1]; 56.1% in the assay listed under Oryctolagus cuniculus [2]; 50.16% in the assay listed under Oryctolagus cuniculus [3]; 34.15% in the assay filed under Oryctolagus cuniculus [6]; 28.07% in the assay listed under Oryctolagus cuniculus [7]; 16.11% in the assay listed under Oryctolagus cuniculus [8]. In addition, the Thrombus weight with Rattus norvegicus [4] turned out to be 4.98 mg; in the assay on Rattus norvegicus [5], 28.09 mg. Moreover, the Activity in the assay with SACC-LM is given as 36.1%.
On to `NC(N)=NCCC[C@H](N)C(=O)NCC(=O)N[C@@H](CC(=O)O)C(=O)N[C@@H](Cc1ccccc1)C(=O)O` (H-RGDF-OH), for which the Am in the assay listed under Oryctolagus cuniculus [1] is 22.11%; in the assay filed under Oryctolagus cuniculus [2], 39.18%; in the assay listed under Oryctolagus cuniculus [3] it was 35.7%; in the assay filed under Oryctolagus cuniculus [6] it was 23.8%; in the assay listed under Oryctolagus cuniculus [7], 7.81%; in the assay filed under Oryctolagus cuniculus [8] it was 7.36%. The Thrombus weight in the assay with Rattus norvegicus [4] was determined as 4.14 mg; with Rattus norvegicus [5], 26.61 mg. The Activity with SACC-LM is listed as 29.7%.
`CC(C)[C@H](NC(=O)[C@H](CC(=O)O)NC(=O)CNC(=O)[C@@H](N)CCCN=C(N)N)C(=O)O` (H-RGDV-OH): the Am was 29.4% in the assay listed under Oryctolagus cuniculus [1]; 54.36% in the assay listed under Oryctolagus cuniculus [2]; 51.16% in the assay filed under Oryctolagus cuniculus [3]; 34.17% in the assay filed under Oryctolagus cuniculus [6]; 19.56% in the assay filed under Oryctolagus cuniculus [7]; 9.8% in the assay listed under Oryctolagus cuniculus [8]. Besides, the Thrombus weight in the assay with Rattus norvegicus [4] was 6.03 mg; in the assay on Rattus norvegicus [5] it was 34.62 mg. Moreover, the Activity in the assay on SACC-LM was 32.1%.
